The structures appear in SMILES notation. Structures can show the parent of a compound that is named as a salt. Where two headings read alike, the source gives them in different places.

For the test, the target named is T1, SMO (Mus musculus, UniProt P56726).
T1 construct: endogenous in cells; host or cells: C3H10T1/2 (ATCC #CCL-226)
As to the kind of experiment: Smoothened (SMO)/Sonic Hedgehog (SHh) Transient Transcriptional Activation Assay (Gli-luciferase reporter in C3H10T1/2 cells). Conditions: SHh 250 ng/ml, 20 hrs. Format: cell-based, murine. The method, boiled down:
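Luminescence (Dual-Glo) measured after 20 h co-exposure at 37 °C to 250 ng/ml human SHh and compound at 2 uM down to 2 nM final. Cells were C3H10T1/2 carrying a transfected murine 10× Gli response-element luciferase construct with pEGFP, starved 20 h in 0.5% calf serum beforehand.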

Where [1] appears, read: C3H 10T1/2, 2 μM test compound, read-out: SMO CELL % INHIBITION @ 2 μM.

T1 sequence (P56726 33-793): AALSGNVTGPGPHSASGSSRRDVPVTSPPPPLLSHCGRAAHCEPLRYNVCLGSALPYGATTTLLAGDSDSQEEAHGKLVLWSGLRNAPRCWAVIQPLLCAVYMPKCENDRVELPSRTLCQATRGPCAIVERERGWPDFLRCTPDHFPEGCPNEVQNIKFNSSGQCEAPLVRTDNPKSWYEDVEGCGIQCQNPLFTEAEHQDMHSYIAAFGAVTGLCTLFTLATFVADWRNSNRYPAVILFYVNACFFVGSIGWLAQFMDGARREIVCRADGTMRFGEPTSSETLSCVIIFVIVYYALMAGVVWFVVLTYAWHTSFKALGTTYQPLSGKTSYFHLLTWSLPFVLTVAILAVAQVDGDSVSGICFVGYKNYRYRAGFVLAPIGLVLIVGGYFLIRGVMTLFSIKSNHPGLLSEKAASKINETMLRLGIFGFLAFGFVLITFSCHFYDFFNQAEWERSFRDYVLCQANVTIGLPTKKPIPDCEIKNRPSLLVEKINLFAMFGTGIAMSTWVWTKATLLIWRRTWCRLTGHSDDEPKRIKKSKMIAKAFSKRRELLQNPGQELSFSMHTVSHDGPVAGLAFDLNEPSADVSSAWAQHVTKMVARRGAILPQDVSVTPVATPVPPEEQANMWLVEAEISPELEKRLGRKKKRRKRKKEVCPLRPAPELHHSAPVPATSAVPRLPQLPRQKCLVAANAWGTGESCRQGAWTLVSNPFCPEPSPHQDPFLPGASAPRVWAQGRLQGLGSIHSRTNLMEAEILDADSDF

One may read the inhibition as the change of the read-out against control, counted positive when it falls. Consider `O=C1CCc2cc(C(=O)NC3CCCC(c4nc5ccccc5[nH]4)C3)ccc2N1` (stereo not shown) [Example 137, N-[3-(1H-benzimidazol-2-yl)cyclohexyl]-2-oxo-1,2,3,4-tetrahydroquino-line-6-carboxamide triflouroacetate], for which the inhibition at 2 µM under setting [1] was determined as 108%.

On to `O=C(CCC1CCCC1)NC1CCCC(c2nc3ccccc3[nH]2)C1` (stereo not shown) [Example 54, N-[3-(1H-benzimidazol-2-yl)cyclohexyl]-3-cyclopentylpro-panamide HCl], for which the inhibition at 2 µM under setting [1] is 67%.

`Cn1c(C23CCCC(NC(=O)c4ccc5c(c4)OC(F)(F)O5)(C2)C3)nc2ccccc21` [Example 250, 2,2-difluoro-N-(5-(1-methyl-1H-benzo[d]imidaz-ol-2-yl)bicyclo[3.1.1]heptan-1-yl)benzo[d][1,3] dioxole-5-carboxamide]: the inhibition at 2 µM under setting [1] is 94%. Regarding `O=C(Nc1ccc(C(F)(F)F)cc1)N[C@@H]1CCC[C@H](c2nc3ccccc3[nH]2)C1` [Example 47, 1-((1R,3S)-3-(1H-Benzo[d]imidazol-2-yl)cyclohexyl]-3-(4-(trifluoromethyl)phenyl)urea], the inhibition at 2 µM (C3H 10T1/2, 2 uM test compound, read-out: SMO % inhibition at 2 uM) is 108%. In the case of `O=C(N[C@@H]1CCC[C@H](c2nc3ccccc3[nH]2)C1)C1COc2ccccc2O1` (stereo partly drawn) [Example 196, N-[(1R,3S)-3-(1H-benzimidazol-2-yl)cyclohexyl]-2,3-dihydro-1,4-benzodioxine-2-carboxamide triflouroacetate], the inhibition at 2 µM under setting [1] stood at 70%.

For the molecule `COc1ccc2[nH]c([C@H]3CCC[C@@H](NC(=O)c4ccc5c(c4)OCCO5)C3)nc2c1` [Example 88, N-[(1R,3S)-3-(5-methoxy-1H-benzimidazol-2-yl)cyclohexyl]-2,3-dihydro-1,4-benzodioxine-6-carboxamide HCl], under setting [1], the inhibition at 2 µM was determined as 106%. As for `O=C(N[C@@H]1CCC[C@H](c2nc3ccccc3[nH]2)C1)[C@@H]1CCc2ccccc2O1` [Example 218, (2S)-N-[(1R,3S)-3-(1H-benzimidazol-2-yl)cyclohexyl] chromane-2-carboxamide triflouroacetate], the inhibition at 2 µM under setting [1] turned out to be 96%. As to `COc1cc(OC)cc(C(=O)N[C@@H]2CCC[C@H](c3nc4ccc(C(F)(F)F)cc4[nH]3)C2)c1` [Example 170, 3,5-dimethoxy-N-{(1R,3S)-3-[6-(trifluoromethyl)-1H-benzimidazol-2-yl]cyclohexyl} benzamide HCl], the inhibition at 2 µM under setting [1] was determined as 110%. Consider `O=C(N[C@@H]1CCC[C@H](c2nc3cc(C(F)(F)F)ccc3[nH]2)C1)c1ccc2c(c1)CN(CC1CC1)CC2` [Example 290, 2-(cyclopropyl-methyl)-N-{(1R,3S)-3-[5-(trifluoromethyl)-1H-benzimidazol-2-yl]cyclohexyl}-1,2,3,4-tetrahydroisoquino-line-7-carboxamide HCl], for which the inhibition at 2 µM under setting [1] was 104%.

On to `COc1cc(OC)cc(C(=O)NC23CCCC(c4nc5cc(Cl)ccc5[nH]4)(C2)C3)c1` [Example 269, N-[5-(5-chloro-1H-benzimidazol-2-yl)bicyclo[3.1.1]hept-1-yl]-3,5-dimethoxybenz-amide], for which the inhibition at 2 µM under setting [1] was 107%. As for `O=C(N[C@@H]1CCC[C@H](c2nc3ccccc3[nH]2)C1)[C@@H]1COc2ccccc2O1` [Example 185, (2S)-N-[(1R,3S)-3-(1H-benzimidazol-2-yl)cyclohexyl]-2,3-dihydro-1,4-benzodioxine-2-carboxamide triflouroacetate], the inhibition at 2 µM under setting [1] was determined as 81%. As for `COCOc1ccc(C(=O)NC2CCCC(c3nc4ccccc4[nH]3)C2)cc1` (stereo not shown) [Example 96, N-[3-(1H-benzimidazol-2-yl)cyclohexyl]-4-(methoxymeth-oxy)benzamide triflouroacetate], the inhibition at 2 µM under setting [1] was found to be 93%. In the case of `CC(C)C1=NOC(C(=O)NC2CCCC(c3nc4ccccc4[nH]3)C2)C1` (stereo not shown) [Example 97, N-[3-(1H-benzimidazol-2-yl)cyclohexyl]-3-isopropyl-4,5-dihydroisoxazole-5-carboxamide triflouroacetate], the inhibition at 2 µM under setting [1] came out at 83%.
